Measurements published in patent US9580431B2, “Inhibitors of human immunodeficiency virus replication” (priority 2013, dated 2017).

The molecules below were run on recombinant NL-Rluc virus (assay: microbe, parasite or virus in culture). Conditions: Human immunodeficiency virus 1, MT2, 120 h, NL-RLuc virus infecting MT-2 cells, 5 days of incubation, luciferase readout; at least 2 experiments; serum condition not given; read-out: EC50.
Format: cell-based, HIV

SMILES | EC50
Cc1nc2cc(-c3nc4cc(-c5ccccc5)ccc4[nH]3)nn2c(-c2cc(F)c3c(c2C)CCCO3)c1[C@H](OC(C)(C)C)C(=O)O [Example 4, (2S)-2-(tert-Butoxy)-2-(7-(8-fluoro-5-methylchroman-6-yl)-5-methyl-2-(5-phenyl-1H-benzo[d]imidazol-2-yl)pyrazolo[1,5-a]pyrimidin-6-yl)acetic acid] | 133 nM
Cc1nc2cc(-c3ncc(Cc4ccc(F)cc4)o3)nn2c(-c2cc(F)c3c(c2C)CCCO3)c1[C@H](OC(C)(C)C)C(=O)O [Example 6, (2S)-2-(tert-Butoxy)-2-(7-(8-fluoro-5-methylchroman-6-yl)-2-(5-(4-fluorobenzyl)oxazol-2-yl)-5-methylpyrazolo[1,5-a]pyrimidin-6-yl)acetic acid] | 6 nM
C=CCOc1ccccc1Cc1cnn(-c2cc3nc(C)c([C@H](OC(C)(C)C)C(=O)O)c(N4CCC(C)(OCC=C)CC4)n3n2)c1 [Example 37, (S)-2-(7-(4-(Allyloxy)-4-methylpiperidin-1-yl)-2-(4-(2-(allyloxy)benzyl)-1H -pyrazol-1-yl)-5-methylpyrazolo[1,5-a]pyrimidin-6-yl)-2-(tert-butoxy)acetic acid] | 11 nM
C=CC1(C)CCN(c2c([C@H](OC(C)(C)C)C(=O)O)c(C)nc3cc(-c4ncc(Cc5ccc(F)cc5)s4)nn23)CC1 [Example 23, (S)-2-(tert-Butoxy)-2-(2-(5-(4-fluorobenzyl)thiazol-2-yl)-5-methyl-7-(4-methyl-4-vinylpiperidin-1-yl)pyrazolo[1,5-a]pyrimidin-6-yl)acetic acid] | 12 nM
Cc1cc(Cc2cnc(-c3cc4nc(C)c([C@H](OC(C)(C)C)C(=O)O)c(N5CCC(C)(C)CC5)n4n3)s2)ccc1F [Example 15, (S)-2-(tert-Butoxy)-2-(7-(4,4-dimethylpiperidin-1-yl)-2-(5-(4-fluoro-3-methylbenzyl)thiazol-2-yl)-5-methylpyrazolo[1,5-a]pyrimidin-6-yl)acetic acid] | 19 nM
COC1(C)CCN(c2c([C@H](OC(C)(C)C)C(=O)O)c(C)nc3cc(-c4ncc(Cc5ccc(F)cc5)s4)nn23)CC1 [Example 22, (S)-2-(tert-Butoxy)-2-(2-(5-(4-fluorobenzyl)thiazol-2-yl)-7-(4-methoxy-4-methylpiperidin-1-yl)-5-methylpyrazolo[1,5-a]pyrimidin-6-yl)acetic acid] | 12 nM
Cc1nc2cc(-c3ncc(-c4cccc(F)c4)s3)nn2c(-c2cc(F)c3c(c2C)CCCO3)c1[C@H](OC(C)(C)C)C(=O)O [Example 9, (2S)-2-(tert-Butoxy)-2-(7-(8-fluoro-5-methylchroman-6-yl)-2-(5-(3-fluorophenyl)thiazol-2-yl)-5-methylpyrazolo[1,5-a]pyrimidin-6-yl)acetic acid] | 28 nM
Cc1nc2cc(-c3ncc(Cc4ccc(F)cc4)s3)nn2c(C2=CCC(C)(C)CC2)c1[C@H](OC(C)(C)C)C(=O)O [Example 10, (S)-2-(tert-Butoxy)-2-(7-(4,4-dimethylcyclohex-1-en-1-yl)-2-(5-(4-fluorobenzyl)thiazol-2-yl)-5-methylpyrazolo[1,5-a]pyrimidin-6-yl)acetic acid] | 19 nM
Cc1nc2cc(-c3nc4cc(Cl)ccc4[nH]3)nn2c(-c2cc(F)c3c(c2C)CCCO3)c1[C@H](OC(C)(C)C)C(=O)O [Example 1, (2S)-2-(tert-Butoxy)-2-(2-(5-chloro-1H-benzo[d]imidazol-2-yl)-7-(8-fluoro-5-methylchroman-6-yl)-5-methylpyrazolo[1,5-a]pyrimidin-6-yl)acetic acid] | 47 nM
C=CCOC1(C)CCN(c2c([C@H](OC(C)(C)C)C(=O)O)c(C)nc3cc(-c4cn(Cc5ccccc5)cn4)nn23)CC1 [Example 41, (S)-2-(7-(4-(Allyloxy)-4-methylpiperidin-1-yl)-2-(1-benzyl-1H-imidazol-4-yl)-5-methylpyrazolo[1,5-a]pyrimidin-6-yl)-2-(tert-butoxy)acetic acid] | 15 nM
Cc1nc2cc(-n3nccc3Cc3ccccc3)nn2c(N2CCC(C)(C)CC2)c1[C@H](OC(C)(C)C)C(=O)O [Example 35, (S)-2-(2-(5 Benzyl-1H-pyrazol-1-yl)-7-(4,4-dimethylpiperidin-1-yl)-5-methylpyrazolo[1,5-a]pyrimidin-6-yl)-2-(tert-butoxy)acetic acid] | 573 nM
Cc1nc2cc(-n3ccc(Cc4ccccc4)n3)nn2c(N2CCC(C)(C)CC2)c1[C@H](OC(C)(C)C)C(=O)O [Example 36, (S)-2-(2-(3-Benzyl-1H-pyrazol-1-yl)-7-(4,4-dimethylpiperidin-1-yl)-5-methylpyrazolo[1,5-a]pyrimidin-6-yl)-2-(tert-butoxy)acetic acid] | 84 nM
Cc1nc2cc(-c3nc4ccc(Cl)cc4n3C)nn2c(-c2cc(F)c3c(c2C)CCCO3)c1[C@H](OC(C)(C)C)C(=O)O [Example 3, (2S)-2-(tert-Butoxy)-2-(2-(6-chloro-1-methyl-1H-benzo[d]imidazol-2-yl)-7-(8-fluoro-5-methylchroman-6-yl)-5-methylpyrazolo[1,5-a]pyrimidin-6-yl)acetic acid] | 100 nM
Cc1nc2cc(-c3cnn(Cc4ccccc4)c3)nn2c(N2CCC(C)(C)CC2)c1[C@H](OC(C)(C)C)C(=O)O [Example 39, (S)-2-(2-(1-Benzyl-1H-pyrazol-4-yl)-7-(4,4-dimethylpiperidin-1-yl)-5-methylpyrazolo[1,5-a]pyrimidin-6-yl)-2-(tert-butoxy)acetic acid] | 7 nM
Cc1nc2cc(-c3nc(Cc4ccc(F)cc4)no3)nn2c(-c2cc(F)c3c(c2C)CCCO3)c1[C@H](OC(C)(C)C)C(=O)O [Example 7, (2S)-2-(tert-Butoxy)-2-(7-(8-fluoro-5-methylchroman-6-yl)-2-(3-(4-fluorobenzyl)-1,2,4-oxadiazol-5-yl)-5-methylpyrazolo[1,5-a]pyrimidin-6-yl)acetic acid] | 28 nM
Cc1nc2cc(N3CCN(Cc4ccccc4)C3=O)nn2c(N2CCC(C)(C)CC2)c1[C@H](OC(C)(C)C)C(=O)O [Example 26, (S)-2-(2-(3-Benzyl-2-oxoimidazolidin-1-yl)-7-(4,4-dimethylpiperidin-1-yl)-5-methylpyrazolo[1,5-a]pyrimidin-6-yl)-2-(tert-butoxy)acetic acid] | 145 nM
Cc1nc2cc(-c3ncc(Cc4ccc(F)cc4)s3)nn2c(N2CC=C(c3ccccc3)CC2)c1[C@H](OC(C)(C)C)C(=O)O [Example 20, (S)-2-(tert-Butoxy)-2-(2-(5-(4-fluorobenzyl)thiazol-2-yl)-5-methyl-7-(4-phenyl-5,6-dihydropyridin-1(2H)-yl)pyrazolo[1,5-a]pyrimidin-6-yl)acetic acid] | 877 nM
Cc1nc2cc(-c3nc4cc(Cl)ccc4n3C)nn2c(-c2cc(F)c3c(c2C)CCCO3)c1[C@H](OC(C)(C)C)C(=O)O [Example 2, (2S)-2-(tert-Butoxy)-2-(2-(5-chloro-1-methyl-1H-benzo[d]imidazol-2-yl)-7-(8-fluoro-5-methylchroman-6-yl)-5-methylpyrazolo[1,5-a]pyrimidin-6-yl)acetic acid] | 50 nM
Cc1nc2cc(-c3ncc(Cc4ccc(F)cc4)s3)nn2c(N2CCC(C)(C3CC3)CC2)c1[C@H](OC(C)(C)C)C(=O)O [Example 24, (S)-2-(tert-Butoxy)-2-(7-(4-cyclopropyl-4-methylpiperidin-1-yl)-2-(5-(4-fluorobenzyl)thiazol-2-yl)-5-methylpyrazolo[1,5-a]pyrimidin-6-yl)acetic acid] | 26 nM
Cc1nc2cc(-c3ncc(CCc4ccc(F)cc4)s3)nn2c(N2CCC(C)(C)CC2)c1[C@H](OC(C)(C)C)C(=O)O [Example 16, (S)-2-(tert-Butoxy)-2-(7-(4,4-dimethylpiperidin-1-yl)-2-(5-(4-fluorophenethyl)thiazol-2-yl)-5-methylpyrazolo[1,5-a]pyrimidin-6-yl)acetic acid] | 38 nM
CC1=CCN(c2c([C@H](OC(C)(C)C)C(=O)O)c(C)nc3cc(-c4ncc(Cc5ccc(F)cc5)s4)nn23)CC1 [Example 19, (S)-2-(tert-Butoxy)-2-(2-(5-(4-fluorobenzyl)thiazol-2-yl)-5-methyl-7-(4-methyl-5,6-dihydropyridin-1(2H)-yl)pyrazolo[1,5-a]pyrimidin-6-yl)acetic acid] | 105 nM

Same assay, conditions: NL-RLuc virus infecting MT-2 cells, 5 days of incubation, luciferase readout; at least 2 experiments; serum condition not given; read-out: EC50

SMILES | EC50
Cc1nc2cc(N3CC(Cc4ccccc4)OC3=O)nn2c(N2CCC(C)(C)CC2)c1[C@H](OC(C)(C)C)C(=O)O (stereo partly drawn) [Example 30, (2S)-2-(2-(5-Benzyl-2-oxooxazolidin-3-yl)-7-(4,4-dimethylpiperidin-1-yl)-5-methylpyrazolo[1,5-a]pyrimidin-6-yl)-2-(tert-butoxy)acetic acid] | 16 nM
Cc1nc2cc(N3CCC(Oc4ccccc4)C3=O)nn2c(N2CCC(C)(C)CC2)c1[C@H](OC(C)(C)C)C(=O)O (stereo partly drawn) [Example 32, (2S)-2-(tert-Butoxy)-2-(7-(4,4-dimethylpiperidin-1-yl)-5-methyl-2-(2-oxo-3-phenoxypyrrolidin-1-yl)pyrazolo[1,5-a]pyrimidin-6-yl)acetic acid] | 339 nM
Cc1nc2cc(N3CC(Cc4ccccc4)OC3=O)nn2c(N2CCC(C)(C)CC2)c1[C@H](OC(C)(C)C)C(=O)O (stereo partly drawn) [Example 29, (2S)-2-(2-(5-Benzyl-2-oxooxazolidin-3-yl)-7-(4,4-dimethylpiperidin-1-yl)-5-methylpyrazolo[1,5-a]pyrimidin-6-yl)-2-(tert-butoxy)acetic acid] | 6 nM
Cc1nc2cc(N3C(=O)OCC3Cc3ccccc3)nn2c(N2CCC(C)(C)CC2)c1[C@H](OC(C)(C)C)C(=O)O (stereo partly drawn) [Example 28, (2S)-2-(2-(4-Benzyl-2-oxooxazolidin-3-yl)-7-(4,4-dimethylpiperidin-1-yl)-5-methylpyrazolo[1,5-a]pyrimidin-6-yl)-2-(tert-butoxy)acetic acid] | 152 nM
Cc1nc2cc(N3C(=O)OCC3Cc3ccccc3)nn2c(N2CCC(C)(C)CC2)c1[C@H](OC(C)(C)C)C(=O)O (stereo partly drawn) [Example 27, (2S)-2-(2-(4-Benzyl-2-oxooxazolidin-3-yl)-7-(4,4-dimethylpiperidin-1-yl)-5-methylpyrazolo[1,5-a]pyrimidin-6-yl)-2-(tert-butoxy)acetic acid] | 478 nM
